Assay results reported in PubChem BioAssay AID330 (DTP/NCI, 2004).
Several values for one entry are separate records, joined by “and”; a condition that tells them apart may be missing. Equal values may be shown once. Toxic doses and inconclusive results are not listed. How the source made its calls: active means survival T/C of 150% or more; inactive means T/C below 125% in these data.

System: P388 leukemia ip, CD2F1 mice, survival T/C
Assay: NCI In Vivo Anticancer Drug Screen. Data for tumor model P388 Leukemia (intraperitoneal) in CD2F1 (CDF1) mice
Details: endpoint: median survival time, higher = longer survival
Summary of the method: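 Mice carrying the transplanted tumor received test compound or vehicle. Survival was recorded in each group, and the value is the treated-group measurement divided by that of the vehicle-treated control group.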

[1] = dose: 50.0 mg/kg/injection, schedule: Q01DX005 (ip), vehicle: saline with Tween-80
[2] = dose: 100.0 mg/kg/injection, schedule: Q01DX005 (ip), vehicle: saline with Tween-80
[3] = dose: 200.0 mg/kg/injection, schedule: Q01DX005 (ip), vehicle: saline with Tween-80
[4] = dose: 50.0 mg/kg/injection, schedule: Q01DX009 (ip), vehicle: Klucel (hydroxypropylcellulose) (HPC)
[5] = dose: 100.0 mg/kg/injection, schedule: Q01DX009 (ip), vehicle: Klucel (hydroxypropylcellulose) (HPC)
[6] = dose: 50.0 mg/kg/injection, schedule: Q01DX009 (ip), vehicle: saline
[7] = dose: 100.0 mg/kg/injection, schedule: Q01DX009 (ip), vehicle: saline
[8] = dose: 200.0 mg/kg/injection, schedule: Q01DX009 (ip), vehicle: saline
[9] = dose: 12.5 mg/kg/injection, schedule: Q01DX009 (ip), vehicle: saline with Tween-80
[10] = dose: 25.0 mg/kg/injection, schedule: Q01DX009 (ip), vehicle: saline with Tween-80
[11] = dose: 50.0 mg/kg/injection, schedule: Q01DX009 (ip), vehicle: saline with Tween-80
[12] = dose: 100.0 mg/kg/injection, schedule: Q01DX009 (ip), vehicle: saline with Tween-80
[13] = dose: 200.0 mg/kg/injection, schedule: Q01DX009 (ip), vehicle: saline with Tween-80

Measured: T/C

OCC[Se][Se]CCO
inactive: dose: 1.25 mg/kg/injection, schedule: Q01DX009 (ip), vehicle: Klucel (hydroxypropylcellulose) (HPC) 103 % of control | dose: 2.5 mg/kg/injection, schedule: Q01DX009 (ip), vehicle: Klucel (hydroxypropylcellulose) (HPC) 100 % of control | dose: 5.0 mg/kg/injection, schedule: Q01DX009 (ip), vehicle: Klucel (hydroxypropylcellulose) (HPC) 103 % of control

O=C(O)C(O)C(O)C1[O][Sb][O]C1CO (stereo unspecified)
inactive: [1] 98 % of control | [2] 96 % of control | [3] 96 % of control

Cc1cc(=O)[nH]c2c1C(=O)c1c(C)cc(=O)n(C)c1C2=O
inactive: dose: 0.5 mg/kg/injection, schedule: Q01DX009 (ip), vehicle: DMSO 99 % of control and 97 % of control | dose: 1.0 mg/kg/injection, schedule: Q01DX009 (ip), vehicle: DMSO 90 % of control | dose: 2.0 mg/kg/injection, schedule: Q01DX009 (ip), vehicle: DMSO 91 % of control | dose: 4.0 mg/kg/injection, schedule: Q01DX009 (ip), vehicle: DMSO 108 % of control

O=C1CC(C2CCCCC2)C(=O)c2cc3cccnc3c(O)c21 (stereo unspecified)
inactive: [1] 101 % of control | [2] 99 % of control | [3] 93 % of control

CC1(C)CC(=O)C(CC(=O)c2ccccc2)=C(NN=C(N)N)C1
inactive: [4] 101 % of control | [5] 100 % of control | dose: 200.0 mg/kg/injection, schedule: Q01DX009 (ip), vehicle: Klucel (hydroxypropylcellulose) (HPC) 91 % of control

O=C(OCC12OC1C(=O)C1OC1C2O)c1ccccc1 (stereo unspecified)
inactive: dose: 1.88 mg/kg/injection, schedule: Q04DX002 (ip), vehicle: saline with Tween-80 104 % of control | dose: 3.75 mg/kg/injection, schedule: Q04DX002 (ip), vehicle: saline with Tween-80 105 % of control | dose: 7.5 mg/kg/injection, schedule: Q04DX002 (ip), vehicle: saline with Tween-80 101 % of control

O=C(O)CSC(SCC(=O)O)c1ccc(F)cc1
inactive: [1] 96 % of control | [2] 96 % of control | [3] 97 % of control

C=C(C)C1CC2(C)C(C)CC(O)CC2C(OC(=O)C=C(C)C)C1O (stereo unspecified)
inactive: dose: 25.0 mg/kg/injection, schedule: Q01DX009 (ip), vehicle: Klucel (hydroxypropylcellulose) (HPC) 93 % of control | [4] 96 % of control | [5] 97 % of control

CCOC(=O)C1(O)CC2(CCC(OCc3ccccc3)CC2)C(=O)O1 (stereo unspecified)
inactive: [6] 102 % of control | [7] 100 % of control | [8] 98 % of control

CCN=C(CC(=O)C12CC3CC(CC(C3)C1)C2)N(CC)CC
inactive: dose: 12.5 mg/kg/injection, schedule: Q01DX009 (ip), vehicle: saline 109 % of control | dose: 25.0 mg/kg/injection, schedule: Q01DX009 (ip), vehicle: saline 112 % of control | [6] 100 % of control and 103 % of control

Nc1cc2c(c[n+](Cc3ccccc3)c3ccccc23)c2ccccc12
inactive: dose: 0.2 mg/kg/injection, schedule: Q04DX003 (ip), vehicle: water 105 % of control | dose: 0.39 mg/kg/injection, schedule: Q04DX003 (ip), vehicle: water 102 % of control | dose: 0.78 mg/kg/injection, schedule: Q04DX003 (ip), vehicle: water 102 % of control | dose: 1.56 mg/kg/injection, schedule: Q04DX003 (ip), vehicle: water 105 % of control

N#CNc1nnnn1-c1ccccc1 (tested in a mixture with another compound)
inactive: dose: 100.0 mg/kg/injection, schedule: Q04DX003 (ip), vehicle: Klucel (hydroxypropylcellulose) (HPC) 96 % of control | dose: 200.0 mg/kg/injection, schedule: Q04DX003 (ip), vehicle: Klucel (hydroxypropylcellulose) (HPC) 92 % of control | dose: 400.0 mg/kg/injection, schedule: Q04DX003 (ip), vehicle: Klucel (hydroxypropylcellulose) (HPC) 98 % of control

CCN(CC)c1ccc2c(C)cc(=O)oc2c1
inactive: dose: 25.0 mg/kg/injection, schedule: Q04DX003 (ip), vehicle: DMSO 92 % of control | dose: 50.0 mg/kg/injection, schedule: Q04DX003 (ip), vehicle: DMSO 88 % of control

CCOc1c(N=Nc2ccc(OC)cc2)c(-c2ccccc2)nn1C(N)=S
inactive: [1] 100 % of control | [2] 100 % of control | [3] 102 % of control

CCCCOc1cccc2c(NCCCCCCNc3c4ccccc4nc4c(OCCCC)cccc34)c3ccccc3nc12
inactive: dose: 0.62 mg/kg/injection, schedule: Q## X009 (ip), vehicle: lactic acid 104 % of control | dose: 1.25 mg/kg/injection, schedule: Q## X009 (ip), vehicle: lactic acid 104 % of control | dose: 2.5 mg/kg/injection, schedule: Q## X009 (ip), vehicle: lactic acid 106 % of control | dose: 5.0 mg/kg/injection, schedule: Q## X009 (ip), vehicle: lactic acid 99 % of control

O=C(N/N=C/c1cccnc1)C(=O)Nc1cccc(C(F)(F)F)c1
inactive: dose: 6.25 mg/kg/injection, schedule: Q01DX005 (ip), vehicle: Klucel (hydroxypropylcellulose) (HPC) 95 % of control | dose: 12.5 mg/kg/injection, schedule: Q01DX005 (ip), vehicle: Klucel (hydroxypropylcellulose) (HPC) 89 % of control | dose: 25.0 mg/kg/injection, schedule: Q01DX005 (ip), vehicle: Klucel (hydroxypropylcellulose) (HPC) 87 % of control

Cc1nn(C(N)=S)c(C)c1N=Nc1cc(Cl)ccc1Cl
inactive: [1] 94 % of control | [2] 86 % of control | [3] 88 % of control

CCc1cc(-c2cc(CC)[nH]n2)n[nH]1
inactive: dose: 60.0 mg/kg/injection, schedule: Q01DX005 (ip), vehicle: saline 100 % of control | dose: 120.0 mg/kg/injection, schedule: Q01DX005 (ip), vehicle: saline 97 % of control | dose: 240.0 mg/kg/injection, schedule: Q01DX005 (ip), vehicle: saline 95 % of control

COc1ccc2c(c1)C(CCN(C)C)(CCN(C)C)C(=O)CC2
inactive: dose: 12.5 mg/kg/injection, schedule: Q01DX005 (ip), vehicle: saline 94 % of control | dose: 25.0 mg/kg/injection, schedule: Q01DX005 (ip), vehicle: saline 95 % of control | dose: 50.0 mg/kg/injection, schedule: Q01DX005 (ip), vehicle: saline 104 % of control and 94 % of control

CC1=Nc2cc3ccccc3cc2N(C)/C1=C/C1=C(Cl)C(=O)c2ccccc2C1=O
inactive: [9] 96 % of control | [10] 100 % of control | [11] 92 % of control and 97 % of control | [12] 106 % of control | [13] 89 % of control

N=C(N)SCc1ccc(C(=O)NN2C(=O)c3ccccc3C2=O)cc1
inactive: [11] 92 % of control | [12] 92 % of control | [13] 97 % of control

CC(C)(C)c1ccc2c(c1)C(O)(c1ccccc1)C1OC1(C(C)(C)C)C2=O (stereo unspecified)
inactive: [6] 106 % of control | [7] 100 % of control | [8] 91 % of control

COCC1CCCN1 (stereo unspecified)
inactive: dose: 100.0 mg/kg/injection, schedule: Q04DX002 (ip), vehicle: saline 104 % of control | dose: 200.0 mg/kg/injection, schedule: Q04DX002 (ip), vehicle: saline 110 % of control

CCOC(=O)Cn1/c(=N/N=C(\C)c2ccc([N+](=O)[O-])o2)sc2cc(Cl)ccc21
inactive: dose: 60.0 mg/kg/injection, schedule: Q01DX005 (ip), vehicle: Klucel (hydroxypropylcellulose) (HPC) 102 % of control | dose: 120.0 mg/kg/injection, schedule: Q01DX005 (ip), vehicle: Klucel (hydroxypropylcellulose) (HPC) 106 % of control and 96 % of control | dose: 240.0 mg/kg/injection, schedule: Q01DX005 (ip), vehicle: Klucel (hydroxypropylcellulose) (HPC) 101 % of control and 91 % of control

O=C(NNc1ccc(F)cc1)C12CC3CC(CC(C3)C1)C2
inactive: [9] 103 % of control | [10] 99 % of control | [11] 87 % of control

O=C1CCCCCOCCOCCOCCOCCOCCCCC1
inactive: [1] 104 % of control | [2] 96 % of control | [3] 101 % of control

CCn1c2ccc(N(C)C)cc2c2cc(N(C)C)ccc21
inactive: dose: 60.0 mg/kg/injection, schedule: Q01DX005 (ip), vehicle: saline with Tween-80 99 % of control | dose: 120.0 mg/kg/injection, schedule: Q01DX005 (ip), vehicle: saline with Tween-80 105 % of control | dose: 240.0 mg/kg/injection, schedule: Q01DX005 (ip), vehicle: saline with Tween-80 102 % of control

CC(=O)Nc1cc([N+]#N)ccc1S(=O)(=O)O
inactive: [11] 109 % of control | [12] 93 % of control | [13] 89 % of control

N#CC12CCC(CC1)CC2Cl (stereo unspecified)
inactive: dose: 0.5 mg/kg/injection, schedule: Q01DX009 (ip), vehicle: saline with Tween-80 108 % of control | dose: 1.0 mg/kg/injection, schedule: Q01DX009 (ip), vehicle: saline with Tween-80 100 % of control | dose: 2.0 mg/kg/injection, schedule: Q01DX009 (ip), vehicle: saline with Tween-80 106 % of control | dose: 4.0 mg/kg/injection, schedule: Q01DX009 (ip), vehicle: saline with Tween-80 113 % of control
